# In patent publication US20020035131A1, “Regimen and kit for amelioration of premature ejaculation” (Pentech Pharmaceuticals, Inc., priority 1999, published 2002):
# Where “and” joins values, the source holds several entries; their conditions need not be identical. Equal entries are not always repeated.
# Legend:
# [1] = cited from earlier work
# [2] = tested on: healthy men with a diagnosis of premature ejaculation (PE); assay: Example 3: double-blind, randomized, placebo-controlled three-way crossover safety and efficacy study, 20 and 30 mg capsules; format: in vivo, human; settings: for Mean Time in minutes, Reported By Partner / Time in minutes (Range), Reported By Partner / Mean Time in minutes, Reported By Patient / Time in minutes (Range), Reported By Patient / Mean % Change from Baseline, Reported By Partner / Mean % Change from Baseline, Reported By Patient: 6-week treatment period, preliminary data; for Mean Time in minutes, Reported By Partner / Time in minutes (Range), Reported By Partner / Mean Time in minutes, Reported By Patient / Time in minutes (Range), Reported By Patient: male baseline latency ≦ 2 minutes; for Reason for Early Termination: AE (Adverse Experience), patients: crossover of placebo, 20 and 30 mg capsules, not attributed to one treatment
# Method: A double-blind, randomized, placebo-controlled, three-way crossover safety and efficacy study was conducted at four clinical sites, A-D. […] The study consisted of a screening period, a baseline period, and three treatment periods, separated by two washout periods. Patients who completed the study participated for about twenty-five weeks. […] Patients who met the selection criteria provided a medical history and submitted to psychosexual and physical examinations at screening. The efficacy of the paroxetine capsules was assessed at each visit by questionnaire. Safety was assessed by physical examinations and adverse experience (AE) reports, if any, were collected throughout the course of the study. A post-treatment physical assessment was performed at the final visit. Qualified patients who were admitted to the study were assigned an identification number in sequential order by enrollment. […] There were about twenty-three patients per sequence. […] Life long history of PE and/or history of PE within the last six months having ≦one minute ejaculation and a perception of lack of control. […] Identically matching placebo capsules were also supplied. Blinding, packaging and labeling was such that each strength of paroxetine capsule and placebo capsule was indistinguishable from one another on the basis of size, appearance, shape, weight, taste, odor finish, and dissolution characteristics. […] A three-week washout (no treatment) period took place between the end of Treatment Period 1 and the start of Treatment Period 2, and between the end of Treatment Period 2 and the start of Treatment Period 3. The following methodology for the study was employed.
# [3] = tested on: normally potent male patients suffering from premature ejaculation; assay: Example 1: incidence of adverse effects; format: in vivo, human
# Excerpt: All patients in the study group were heterosexual, had no other sexual disorders and were either married or in a stable relationship. The baseline pre-treatment ELT for the group, determined as the mean of measurements from a minimum of two acts of sexual intercourse was 2.2 (range 2-3) as reported by patients prior to commencement of the study using a stop watch operated by the patients.
# Each patient was supplied with an ejaculation diary and instructed to record their frequency of coitus, quality of erection and orgasm, and to measure and record their ejaculatory latency time using a stop-watch. The patients were required to attempt coitus on at least two occasions each week.
# [4] = tested on: normally potent male patients suffering from premature ejaculation; assay: Example 2: incidence of adverse effects; format: in vivo, human
# dopamine receptors = settings: unlike sertraline; cited from earlier work
# [5] = tested on: normally potent male patients suffering from premature ejaculation; assay: Example 2 Study Group 1: single blind cross-over, continual maintenance paroxetine vs placebo (ELT, coitus frequency); format: in vivo, human
# Excerpt: All patients in the study group were heterosexual, had no other sexual disorders and were either married or in a stable relationship. Patients with erectile dysfunction, reduced sexual desire, inhibited male orgasm, chronic depressive, psychiatric or physical illness, alcohol or substance abuse and the use of psychotropic and anti-depressant medication were excluded from the trial. Study Group 1 was comprised of 26 patients who were randomized into two treatment groups, Group A and Group B. […] Group B received placebo similarly administered about 3-4 hours before sexual intercourse. Patients were reviewed every two weeks. Cross-over was then conducted in both groups after four weeks of treatment, following an intervening three week drug free “washout” period, for a further four weeks of treatment. None of the patients received any formal psychosexual counseling. Patients were supplied with a diary and were asked to record their frequency of coitus, quality of erection and orgasm. Patients were asked to measure their ELT using a stopwatch. Pre-treatment mean ELT was measured over a three week baseline period during which patients were asked to have sexual intercourse at least three times. Pre-treatment frequency of coitus was the mean number of attempts in the previous three months. Patients were asked not to use condoms or topical penile anaesthetic creams or sprays. The frequency data of coitus and ejaculatory latency time (ELT) during the paroxetine and placebo treatment phases were statistically compared (Student's t-test).
# [6] = tested on: central β-adrenergic receptors; settings: unlike sertraline; cited from earlier work
# [7] = Group A-Phase 1: 20 mg acute daily dosing
# [8] = Group A-Phase 1: 20 mg acute daily dosing, 61 patients
# [9] = Study Group 2, Daily Paroxetine (10 mg)
# [10] = Study Group 2, Daily Paroxetine (10 mg), 42 patients
# [11] = Study Group 2, Daily Paroxetine (10 mg), 42 patients, listed as Paroxetine
# [12] = Study Group 1-A, week 1: continual maintenance paroxetine 20 mg 3-4 hours before intercourse
# [13] = Study Group 1-A, week 2: continual maintenance paroxetine 20 mg 3-4 hours before intercourse
# [14] = Study Group 1-A, week 3: continual maintenance paroxetine 20 mg 3-4 hours before intercourse
# [15] = Study Group 1-A, week 4: continual maintenance paroxetine 20 mg 3-4 hours before intercourse
# [16] = Study Group 1-B, week 8: first week of continual maintenance paroxetine 20 mg after placebo and washout
# [17] = Study Group 1-B, week 9: second week of continual maintenance paroxetine 20 mg after placebo and washout
# [18] = Study Group 1-B, week 10: third week of continual maintenance paroxetine 20 mg after placebo and washout
# [19] = Study Group 1-B, week 11: fourth week of continual maintenance paroxetine 20 mg after placebo and washout
structure (smiles),measurement,setting,value
"Fc1ccc([C@@H]2CCNC[C@H]2COc2ccc3c(c2)OCO3)cc1 (relative stereo) [paroxetine, trans-(−)-3-(1,3-benzodioxol-5-yloxy)methyl-4-(4-fluorophenyl) piperidine]",time to steady state systemic levels,[1]; occurring after about,7 to 14 days
same,half life,[1]; reportedly,24 h
same,time to peak plasma levels,[1]; usually achieved within about,2 to 8 h
same,"Mean Time in minutes, Reported By Partner","[2]; 20 mg capsule daily, n = 26",6.5 min
same,"Time in minutes (Range), Reported By Partner","[2]; 20 mg capsule daily, n = 26",(0.4-20) minutes
same,"Mean Time in minutes, Reported By Patient","[2]; 20 mg capsule daily, n = 28",6.2 min
same,"Time in minutes (Range), Reported By Patient","[2]; 20 mg capsule daily, n = 28",(0.5-20) minutes
same,"Mean % Change from Baseline, Reported By Partner",[2]; 20 mg capsule daily,225%
same,"Mean % Change from Baseline, Reported By Patient",[2]; 20 mg capsule daily,464%
same,"Mean Time in minutes, Reported By Partner","[2]; 30 mg capsule daily, n = 25",6.8 min
same,"Time in minutes (Range), Reported By Partner","[2]; 30 mg capsule daily, n = 25",(0.3-30) minutes
same,"Mean Time in minutes, Reported By Patient","[2]; 30 mg capsule daily, n = 27",7 min
same,"Time in minutes (Range), Reported By Patient","[2]; 30 mg capsule daily, n = 27",(0.25-45) minutes
same,"Mean % Change from Baseline, Reported By Partner",[2]; 30 mg capsule daily,240%
same,"Mean % Change from Baseline, Reported By Patient",[2]; 30 mg capsule daily,536%
same,"Reason for Early Termination: AE (Adverse Experience), patients","[2]; Clinical Site A, 10 enrolled",0
same,"Reason for Early Termination: AE (Adverse Experience), patients","[2]; Clinical Site B, 9 enrolled",0
same,"Reason for Early Termination: AE (Adverse Experience), patients","[2]; Clinical Site C, 15 enrolled",2
same,"Reason for Early Termination: AE (Adverse Experience), patients","[2]; Clinical Site D, 19 enrolled",3
same,"Reason for Early Termination: AE (Adverse Experience), patients","[2]; TOTALS of sites A-D, 53 enrolled",5
same,Adverse effects: Total Patients (fraction),[3]; [7],12/61
same,Adverse effects: Total Patients (percent),[3]; [7],20%
same,Adverse Effect: Drowsiness (patients),[3]; [8],1
same,Adverse Effect: Inhibited orgasm (patients),[3]; [8],3
same,Adverse effect: Anejaculation (patients),[3]; [8],5
same,Adverse effect: Anorexia (patients),[3]; [8],1
same,Adverse effect: Gastrointestinal upset (patients),[3]; [8],2
same,Adverse effect: Reduced Libido (patients),[3]; [8],3
same,patients with inhibition of orgasm despite achieving ejaculation (percent),"[3]; Group A-Phase 1: acute treatment with 20 mg paroxetine/day, 3/61",5%
same,patients with anejaculation (percent),"[3]; Group A-Phase 1: acute treatment with 20 mg paroxetine/day, 5/61",8%
same,Adverse effects: Total Patients (fraction),[3]; Group A-Phase 2: 20 mg continual maintenance after conversion,None and 0/53
same,Adverse effects: Total Patients (fraction),[3]; Group B: 20 mg continual maintenance only,None and 0/33
same,Erectile dysfunction,[3]; all patients of Example 1,not reported by any of the patients
same,patients with anejaculation achieving ejaculation with a reduced dose,"[3]; anejaculation on 20 mg/day, reduced dose of 5 mg (n=3) and 10 mg (n=1)",4/5
same,patients reporting any adverse effects,"[4]; Study Group 1, continual maintenance use of paroxetine (20 mg)",None
same,Adverse effects: Total Patients (fraction),[4]; [9],7/42
same,Adverse effects: Total Patients (percent),[4]; [9],17%
same,Adverse effect: Anejaculation (patients),[4]; [10],Three
same,Adverse effect: Anorexia (patients),[4]; [10],1
same,Adverse effect: Gastrointestinal upset (patients),[4]; [10],3
same,Adverse effect: Reduced Libido (patients),[4]; [10],Two
same,Adverse effect: Anejaculation (patients),[4]; [11],3
same,Adverse effect: Reduced Libido (patients),[4]; [11],2
same,return of ejaculation after withdrawal of the drug,"[4]; Study Group 2, patients with anejaculation on daily paroxetine",2 to 10 days
same,affinity for dopamine receptors,dopamine receptors,little affinity
same,Coitus Frequency/wk,[5]; [12],1.1 /wk
same,Ejaculatory Latency Time,[5]; [12],1.0 min
same,Coitus Frequency/wk,[5]; [13],1.4 /wk
same,Ejaculatory Latency Time,[5]; [13],3.0 min
same,Coitus Frequency/wk,[5]; [14],2.3 /wk
same,Ejaculatory Latency Time,[5]; [14],2.9 min
same,Coitus Frequency/wk,[5]; [15],3.2 /wk
same,Ejaculatory Latency Time,[5]; [15],3.2 min
same,Coitus Frequency/wk,[5]; [16],0.6 /wk
same,Ejaculatory Latency Time,[5]; [16],1.3 min
same,Coitus Frequency/wk,[5]; [17],1.9 /wk
same,Ejaculatory Latency Time,[5]; [17],2.8 min
same,Coitus Frequency/wk,[5]; [18],3.5 /wk
same,Ejaculatory Latency Time,[5]; [18],3.5 min
same,Coitus Frequency/wk,[5]; [19],3.1 /wk
same,Ejaculatory Latency Time,[5]; [19],3.5 min
same,time to prolongation of the ejaculatory interval (ELT),[5]; Study Group 1: continual maintenance paroxetine,1-2 weeks
same,patients achieving intra-vaginal ejaculation for the first time,"[5]; Study Group 1, patients who had never previously achieved it, after two weeks of treatment",one of three
same,affinity for central β-adrenergic receptors,[6],little affinity
